Patent US6806229B1, “Herbicidally active pyridine sulfonyl urea derivatives” (LG Life Sciences, priority 2003, dated 2004)
Read-outs that look alike come from different tables or passages of the source.

Legend:
Type in all cases: in vivo
[1] = tested on: Oryza sativa; assay: Phytotoxicity to rice (direct-seeded and transplanted) in paddy condition, greenhouse pot test; details: visual rating after two weeks; for Phytotoxicity, Oryza sativa, Seed: direct-seeded rice, treated 5 days after sowing; for Phytotoxicity, Oryza sativa, Transplanted: transplanted rice seedlings, treated 5 days after transplanting
Excerpt: (§1) Pots having a surface area of 150 cm^2 were filled with a small amount of fertilizer and sterilized paddy field soil in a muddy state with a depth of 5 cm. Five (5) seeds of pre-germinated rice were directly sown on the soil surface and three (3) rice seedlings (2˜3 leaves) prepared in advance were transplanted in a depth of 2 cm in each pot. In another pot, seeds of barnyardgrass were sown and incorporated into the surface layer of soil. After sowing and transplanting of rice plant and sowing of barnyardgrass, the pots were flooded with water 3 cm deep and kept in a greenhouse. The rice plant was treated with the chemicals 5 days after sowing or transplanting, and barnyardgrass was treated with the chemicals at the pre-emergence (5 days after from sowing) and post-emergence stage (at the three-leaf stage, usually after 15 days from sowing).
(§2) Suitable herbicidal compositions were prepared by mixing and dissolving 1 part by weight of the active compound with 5 parts by weight of acetone and 1 part by weight of alkylaryl polyglycolether as an emulsifier and then diluting with water to the predetermined concentration. Application was made by dropping the herbicide solutions onto the water surface of the pots.

[2] = tested on: Echinochloa crus-galli; assay: Herbicidal activity to barnyardgrass in paddy condition, pre- and post-emergence, greenhouse pot test; details: Echinochloa crus-galli, 336 h, visual rating after two weeks
Excerpt: as §1, §2

[3] = tested on: Monochoria vaginaiis (MOOVA); assay: Weed spectrum in paddy field, MOOVA; details: 20 g/ha; applied 5 days after sowing; observed two weeks
Description: as §2
(§3) Pots having a surface area of 500 cm^2 were filled with the soil in a muddy state as mentioned above. Seeds of annual weeds such as Monochoria vaginaiis (MOOVA), Lindernia procumbens (LIDPR), Rotala indica (ROTIN), Scirpus jumcoides (SCPJU), etc. were sown on the surface layer of soil, and then were planted tubers of perennial weeds such as Cyperus serotinus (CYPSE) and Sagittaria pygmaea (SAGPY) in a depth of 1 cm, and Eleocharis kuroguwai (ELOKU) and Sagittaria trifolia (SAGTR) in a depth of 4 cm. After 5 days, the chemicals were formulated as mentioned above and applied by dropping to the water surface of the pots.

[4] = tested on: Lindernia procumbens (LIDPR); assay: Weed spectrum in paddy field, LIDPR; details: 20 g/ha; applied 5 days after sowing; observed two weeks
Description: as §2, §3

[5] = tested on: Rotala indica (ROTIN); assay: Weed spectrum in paddy field, ROTIN; details: 20 g/ha; applied 5 days after sowing; observed two weeks
Description: as §2, §3

[6] = tested on: Scirpus jumcoides (SCPJU); assay: Weed spectrum in paddy field, SCPJU; details: 20 g/ha; applied 5 days after sowing; observed two weeks
Description: as §2, §3

[7] = tested on: Cyperus serotinus (CYPSE); assay: Weed spectrum in paddy field, CYPSE; details: 20 g/ha; tubers planted 1 cm deep; applied after 5 days; observed two weeks
Description: as §2, §3

[8] = tested on: Sagittaria pygmaea (SAGPY); assay: Weed spectrum in paddy field, SAGPY; details: 20 g/ha; tubers planted 1 cm deep; applied after 5 days; observed two weeks
Description: as §2, §3

[9] = tested on: Eleocharis kuroguwai (ELOKU); assay: Weed spectrum in paddy field, ELOKU; details: 20 g/ha; tubers planted 4 cm deep; applied after 5 days; observed two weeks
Description: as §2, §3

[10] = tested on: Sagittaria trifolia (SAGTR); assay: Weed spectrum in paddy field, SAGTR; details: 20 g/ha; tubers planted 4 cm deep; applied after 5 days; observed two weeks
Description: as §2, §3

[11] = 80 g/ha, 0 = none, 100 = complete death
[12] = post-emergence, three-leaf stage, read-out: Herbicidal activity, Echinochloa crus-galli, Post-emergence (3-Leaf stage)
[13] = pre-emergence (5 days after sowing), read-out: Herbicidal activity, Echinochloa crus-galli, Pre-emergence
[14] = pre-emergence (5 days after sowing), 0 = no activity, 100 = complete death, read-out: Herbicidal activity, Echinochloa crus-galli, Pre-emergence

Row | Compound | Phytotoxicity, Oryza sativa, Seed ([1]; 10 g/ha) | Phytotoxicity, Oryza sativa, Transplanted ([1]; 10 g/ha) | Phytotoxicity, Oryza sativa, Seed ([1]; 20 g/ha) | Phytotoxicity, Oryza sativa, Transplanted ([1]; 20 g/ha) | Phytotoxicity, Oryza sativa, Seed ([1]; 40 g/ha) | Phytotoxicity, Oryza sativa, Transplanted ([1]; 40 g/ha) | Phytotoxicity, Oryza sativa, Seed [1, 11] | Phytotoxicity, Oryza sativa, Transplanted ([1]; 80 g/ha) | pest or weed control at 5 g/ha [2, 12] | pest or weed control at 5 g/ha [2, 13] | pest or weed control at 10 g/ha [2, 12] | pest or weed control at 10 g/ha [2, 13] | pest or weed control at 20 g/ha [2, 12] | pest or weed control at 20 g/ha [2, 13] | pest or weed control at 30 g/ha [2, 12] | pest or weed control at 30 g/ha [2, 14] | Weed spectrum, Annual weeds, MOOVA [3] | Weed spectrum, Annual weeds, LIDPR [4] | Weed spectrum, Annual weeds, ROTIN [5] | Weed spectrum, Annual weeds, SCPjU [6] | also measured
1 | COCC(=O)O[C@H](c1ncccc1S(=O)(=O)NC(=O)Nc1nc(OC)cc(OC)n1)[C@H](C)F [Com. 2] | 0% | 0% | 0% | 0% | 20% | 10% | 30% | 10% | 50% | 60% | 90% | 100% | 100% | 100% | 100% | 100% | 100 | 100 | 100 | 100 | Weed spectrum, Perennial weeds, CYPSE [7]: 100; Weed spectrum, Perennial weeds, SAGPY [8]: 95; Weed spectrum, Perennial weeds, ELOKU [9]: 95; Weed spectrum, Perennial weeds, SAGTR [10]: 90
2 | COCCC(=O)O[C@H](c1ncccc1S(=O)(=O)NC(=O)Nc1nc(OC)cc(OC)n1)[C@H](C)F [Com. 4] | 0% | 0% | 0% | 0% | 20% | 10% | 30% | 20% | 60% | 60% | 90% | 95% | 100% | 100% | 100% | 100% | 100 | 100 | 100 | 100 | Weed spectrum, Perennial weeds, CYPSE [7]: 100; Weed spectrum, Perennial weeds, SAGPY [8]: 90; Weed spectrum, Perennial weeds, ELOKU [9]: 95; Weed spectrum, Perennial weeds, SAGTR [10]: 85
